The values below come from patent US20240158446A1, “CYCLIC COMPOUND HAVING SELECTIVE INHIBITORY ACTION ON KRAS OVER HRAS AND NRAS” (CHUGAI SEIYAKU KABUSHIKI KAISHA, priority 2021, published 2024).

The target in test [1] is GDP-bound NRAS wild-type protein (Homo sapiens, UniProt P01111). The test can be described thus: Binding to NRAS by surface plasmon resonance (SPR), Single Cycle Kinetics. Conditions: SPR, GDP-bound NRAS wild-type protein vs GDP-bound KRAS wild-type protein.
In test [2] the target is GDP-bound KRAS wild-type protein (Homo sapiens, UniProt P01116). The experiment in a line: Binding to KRAS by surface plasmon resonance (SPR), Single Cycle Kinetics. To be noted: SPR Single Cycle Kinetics, GDP-bound KRAS wild-type protein, 1:1 binding model; read-out: KRAS KD. For orientation: SPR reads the build-up and loss of mass on a sensor chip optically.
In test [3] the target is GDP-bound HRAS wild-type protein (Homo sapiens, UniProt P01112). The test can be described thus: Binding to HRAS by surface plasmon resonance (SPR), Single Cycle Kinetics. To be noted: SPR, GDP-bound HRAS wild-type protein vs GDP-bound KRAS wild-type protein.

*1 amine or outer side, *2 acyl side, *3 side chain or, on linkers, in order; H or OH if unused. Where a SMILES comes first, the peptide text is derived from it. Bridges are numbered along the chain shown (N, C = ends). [ ]: non-standard residue; d: D form. The star is where a group is joined. hPhe(3-Cl-4-CF3) = N[C@@H](CCc1ccc(C(F)(F)F)c(Cl)c1)C(=O)O; X31 = COCCCN([C@@H](Cc1ccc(C(F)(F)F)cc1)C(=O)[*:2])[*:1]; X32 = COCCN([C@@H](Cc1ccc(C(F)(F)F)cc1)C(=O)[*:2])[*:1]; X10 = C=CCN([C@@H](Cc1ccc(C)cc1)C(=O)[*:2])[*:1]; X16 = CCCN([C@@H](Cc1ccc(OC)cc1)C(=O)[*:2])[*:1]; NPrPhe(4-Me) = CCCN[C@@H](Cc1ccc(C)cc1)C(=O)O; NMeGly(cPent) = CN[C@H](C(=O)O)C1CCCC1; Aze(3S-Me) = C[C@H]1CN[C@@H]1C(=O)O; NMeAllylGly = C=CC[C@H](NC)C(=O)O; NMeD = CN[C@@H](CC(=O)O)C(=O)O; NMeL = CN[C@@H](CC(C)C)C(=O)O; Morpholide = C1CN(*)CCO1; NMeA = CN[C@@H](C)C(=O)O; Ac5c = NC1(C(=O)O)CCCC1; Aze = O=C(O)[C@@H]1CCN1; Sar = CNCC(=O)O

Chain of GDP-bound NRAS wild-type protein (P01111 whole entry): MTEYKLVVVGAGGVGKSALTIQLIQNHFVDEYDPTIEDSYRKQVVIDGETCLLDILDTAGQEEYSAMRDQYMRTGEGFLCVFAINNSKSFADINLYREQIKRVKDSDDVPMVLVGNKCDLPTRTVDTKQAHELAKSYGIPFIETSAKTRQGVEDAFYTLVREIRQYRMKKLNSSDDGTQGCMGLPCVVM
Chain of GDP-bound HRAS wild-type protein (P01112 whole entry): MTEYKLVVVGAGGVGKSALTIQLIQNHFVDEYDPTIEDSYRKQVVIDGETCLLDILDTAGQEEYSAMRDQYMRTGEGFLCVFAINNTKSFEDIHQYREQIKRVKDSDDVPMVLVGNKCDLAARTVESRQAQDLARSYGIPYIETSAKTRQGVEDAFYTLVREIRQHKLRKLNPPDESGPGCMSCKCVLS
Chain of GDP-bound KRAS wild-type protein (P01116 whole entry): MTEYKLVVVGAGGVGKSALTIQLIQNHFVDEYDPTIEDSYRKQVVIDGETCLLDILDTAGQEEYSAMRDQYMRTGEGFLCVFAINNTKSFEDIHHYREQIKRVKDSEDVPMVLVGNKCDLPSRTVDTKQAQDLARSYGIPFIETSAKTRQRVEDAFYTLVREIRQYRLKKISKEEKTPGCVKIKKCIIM

With `CC[C@H](C)[C@@H]1NC(=O)[C@H](CC(C)C)N(C)C(=O)C[C@@H](C(=O)N2CCOCC2)N(C)C(=O)[C@H](C2CCCC2)N(C)C(=O)C2(CCCC2)NC(=O)[C@@H]2CCCN2C(=O)[C@H](CCc2ccc(C(F)(F)F)c(Cl)c2)NC(=O)CN(C)C(=O)[C@H](Cc2ccc(C(F)(F)F)cc2)N(CCOC)C(=O)CN(C)C(=O)CN(C)C1=O` [PP0132] ([NMeL]I[Sar][Sar][X32][Sar][hPhe(3-Cl-4-CF3)]P[Ac5c][NMeGly(cPent)][NMeD]-Morpholide; lactam N-11), in test [1], the “NRAS/KRAS (ratio of KD value for NRAS to KD value for KRAS)” value is “C (A compound having a KD ratio of 0.1 or more and less than 3 is denoted as C)”. Also, in test [2], the Kd (usually the free concentration of one partner at which half of the binding sites on the other are occupied at equilibrium, for simple one-to-one binding) amounted to 0.2 nM. The “HRAS/KRAS (ratio of KD value for HRAS to KD value for KRAS)” value in test [3] was “C (A compound having a KD ratio of 0.1 or more and less than 3 is denoted as C)”.
For `CC[C@H](C)[C@@H]1NC(=O)[C@H](CC(C)C)N(C)C(=O)C[C@@H](C(=O)N2CCOCC2)N(C)C(=O)[C@H](C2CCCC2)N(C)C(=O)C2(CCCC2)NC(=O)[C@@H]2CCCN2C(=O)[C@H](CCc2ccc(C(F)(F)F)c(Cl)c2)NC(=O)CN(C)C(=O)[C@H](Cc2ccc(C(F)(F)F)cc2)N(CCCOC)C(=O)CN(C)C(=O)CN(C)C1=O` [PP0133] ([NMeL]I[Sar][Sar][X31][Sar][hPhe(3-Cl-4-CF3)]P[Ac5c][NMeGly(cPent)][NMeD]-Morpholide; lactam N-11), in test [1], the “NRAS/KRAS (ratio of KD value for NRAS to KD value for KRAS)” value was “B (a compound having 3 or more and less than 10 is denoted as B)”. In addition, the Kd in test [2] is 0.08 nM. In test [3], the “HRAS/KRAS (ratio of KD value for HRAS to KD value for KRAS)” value was “C (A compound having a KD ratio of 0.1 or more and less than 3 is denoted as C)”.
As for `CCCN1C(=O)[C@@H]2CCN2C(=O)[C@H](C)N(C)C(=O)[C@H]([C@@H](C)CC)NC(=O)[C@H](CC(C)C)N(C)C(=O)C[C@@H](C(=O)N2CCOCC2)N(C)C(=O)[C@H](C2CCCC2)N(C)C(=O)C2(CCCC2)NC(=O)[C@@H]2CCCN2C(=O)[C@H](CCc2ccc(C(F)(F)F)c(Cl)c2)NC(=O)CN(C)C(=O)[C@@H]1Cc1ccc(OC)cc1` [PP0134] ([NMeL]I[NMeA][Aze][X16][Sar][hPhe(3-Cl-4-CF3)]P[Ac5c][NMeGly(cPent)][NMeD]-Morpholide; lactam N-11), in test [1], the “NRAS/KRAS (ratio of KD value for NRAS to KD value for KRAS)” value is “C (A compound having a KD ratio of 0.1 or more and less than 3 is denoted as C)”. Besides, in test [2], the Kd was determined as 0.66 nM. For the same compound, the “HRAS/KRAS (ratio of KD value for HRAS to KD value for KRAS)” value in test [3] is “B (a compound having 3 or more and less than 10 is denoted as B)”.
Consider `CCCN1C(=O)CN(C)C(=O)CN(C)C(=O)[C@H]([C@@H](C)CC)NC(=O)[C@H](CC(C)C)N(C)C(=O)C[C@@H](C(=O)N2CCOCC2)N(C)C(=O)[C@H](C2CCCC2)N(C)C(=O)C2(CCCC2)NC(=O)[C@@H]2CCCN2C(=O)[C@H](CCc2ccc(C(F)(F)F)c(Cl)c2)NC(=O)CN(C)C(=O)[C@@H]1Cc1ccc(OC)cc1` [PP0135] ([NMeL]I[Sar][Sar][X16][Sar][hPhe(3-Cl-4-CF3)]P[Ac5c][NMeGly(cPent)][NMeD]-Morpholide; lactam N-11), for which, in test [1], the “NRAS/KRAS (ratio of KD value for NRAS to KD value for KRAS)” value was “B (a compound having 3 or more and less than 10 is denoted as B)”. In addition, in test [2], the Kd came out at 0.75 nM. In addition, the “HRAS/KRAS (ratio of KD value for HRAS to KD value for KRAS)” value in test [3] was “C (A compound having a KD ratio of 0.1 or more and less than 3 is denoted as C)”.
With `CCCN1C(=O)[C@@H]2[C@@H](C)CN2C(=O)[C@H](C)N(C)C(=O)[C@H]([C@@H](C)CC)NC(=O)[C@H](CC(C)C)N(C)C(=O)C[C@@H](C(=O)N2CCOCC2)N(C)C(=O)[C@H](C2CCCC2)N(C)C(=O)C2(CCCC2)NC(=O)[C@@H]2CCCN2C(=O)[C@H](CCc2ccc(C(F)(F)F)c(Cl)c2)NC(=O)CN(C)C(=O)[C@@H]1Cc1ccc(C)cc1` [PP0138] ([NMeL]I[NMeA][Aze(3S-Me)][NPrPhe(4-Me)][Sar][hPhe(3-Cl-4-CF3)]P[Ac5c][NMeGly(cPent)][NMeD]-Morpholide; lactam N-11), in test [1], the “NRAS/KRAS (ratio of KD value for NRAS to KD value for KRAS)” value is “C (A compound having a KD ratio of 0.1 or more and less than 3 is denoted as C)”. For the same compound, the Kd in test [2] stood at 0.77 nM. In addition, the “HRAS/KRAS (ratio of KD value for HRAS to KD value for KRAS)” value in test [3] was “C (A compound having a KD ratio of 0.1 or more and less than 3 is denoted as C)”.
Turning to `C=CC[C@H]1C(=O)N(CC=C)[C@@H](Cc2ccc(C)cc2)C(=O)N(C)CC(=O)N[C@@H](CCc2ccc(C(F)(F)F)c(Cl)c2)C(=O)N2CCC[C@H]2C(=O)NC2(CCCC2)C(=O)N(C)[C@@H](C2CCCC2)C(=O)N(C)[C@H](C(=O)N2CCOCC2)CC(=O)N(C)[C@@H](CC(C)C)C(=O)N[C@@H]([C@@H](C)CC)C(=O)N(C)CC(=O)N1C` [PP0139] ([NMeL]I[Sar][NMeAllylGly][X10][Sar][hPhe(3-Cl-4-CF3)]P[Ac5c][NMeGly(cPent)][NMeD]-Morpholide; lactam N-11), the “NRAS/KRAS (ratio of KD value for NRAS to KD value for KRAS)” value in test [1] was “C (A compound having a KD ratio of 0.1 or more and less than 3 is denoted as C)”. Besides, the Kd in test [2] was found to be 230 nM. Further, in test [3], the “HRAS/KRAS (ratio of KD value for HRAS to KD value for KRAS)” value is “C (A compound having a KD ratio of 0.1 or more and less than 3 is denoted as C)”.
